Where a name gives a salt, the structure may show the parent alone.

These results are taken from US20090082438A1, “Coordination Compound Composed of Diaminocyclohexane Platinum (II) and Block Copolymer and Anti-Cancer Agent Comprising the Same” (priority 2005, published 2009).

The test system of series [1] is mouse colon cancer Colon-26 cell line. Kind of series: Treating Test Example 2: anti-tumor and life-prolongation effect, i.v. administration to Colon-26-transplanted CDF1 mice. It counts as in vivo.
Series [2] can be described thus: Treating Test Example 2: toxicity (body weight change, deaths) in treated CDF1 mice. As to conditions: 10 mg/kg. From the text: In this experiment, the treatment was started on the 9th day after the tumor transplantation.

For the compound `O=C1[O][Pt-2]2([NH2+]C3CCCC[C@H]3[NH2+]2)[O]C1=O` (stereo partly shown) [oxaliplatin, oxalate (1,2-diaminocyclohexane)platinum (II)], in series [1] (doses 2, 4 or 6 mg/kg oxaliplatin), the “life-prolonging effect (survival)” value is “little life-prolonging effect”. The “remarkable tumor growth-inhibiting effect” value in series [1] (oxaliplatin up to 10 mg/kg, every third day, three times) was “not observed”. Moreover, in series [2], the “body weight reduction to” value is listed as 80% and the “deaths compared with untreated group (survival number)” value was “earlier deaths than the untreated group”.
